Source: patent US20040151761A1, “Methods and compositions utilizing astaxanthin” (priority 2003, published 2004)
“Also recorded” adds a separate entry of the source.

Assays:
[1] = Body weight of dogs fed astaxanthin; type: in vivo, dog
Procedure: Female Beagle dogs (9 to 10 mo old; 8.2±0.2 kg body weight; Covance Research Products Inc., Kalamazoo, Mich.) were randomly assigned (n=14/treatment) to be fed 0, 10, 20, or 40 mg astaxanthin (109 g astaxanthin/kg oleoresin concentrate from Haematococcus pluvialis, astraZanthin™, La Haye Laboratories, Redmond, Wash.) daily for 16 weeks. Astaxanthin was incorporated into a commercial basal diet (The Iams Co., Lewisburg, Ohio.) and fed two times daily (200 g food/d). The diet composition was as follows (g/kg): 85.3 moisture, 275.8 protein, 60.7 ash, 115.0 fat, 9.9 Ca, 9.3 P, 21.3 crude fiber, and 18,914 kJ/kg gross energy; the n-6:n-3 fatty acid ratio was 7.9. Dogs were housed in 2×3 m pens (2 dogs/pen) in a temperature (20 to 22° C.) and light-(14 hour light) controlled facility. Body weight was recorded on week 0, 4, 8, and 16. Blood was collected on wk 0, 6 and 12 for assessing immune function. All dogs were vaccinated (Vanguard 5™, Smithkline Beacham, West Chester, Pa.) twice on week 12 and 14 and blood again taken on week 16 to assess post-vaccination immune responses.

[2] = Hematology in dogs; type: in vivo, dog; settings: throughout the study
Procedure: Hematology. Complete blood count (white blood cell, RBC and platelet counts, lymphocyte, monocyte and granulocyte differential counts, hematocrit, hemoglobin, and mean corpuscular volume, hemoglobin and hemoglobin concentration, and platelet volume) was performed on a hematology analyzer (Vet ABC-Hematology Analyzer, Heska, Fort Collins, Colo.) using EDTA-treated blood.

[3] = tested on: CD3, CD4, CD8, MHC II and CD21 lymphocyte subpopulations; test: Leukocyte subsets in dogs by flow cytometry; type: in vivo, dog
Source text: Leukocyte subset. Subpopulations of CD3 (total T), CD4 (Th), CD8 (Tc), MHC II (activated lymphocytes), and CD21 (mature B cells) were quantitated by flow cytometry on week 0, 6, 12 and 16 (Chew et al., 2000).

[4] = tested on: C-reactive protein (CRP); test: Plasma C-reactive protein in dogs; type: in vivo, dog
Procedure: C-Reactive protein. Changes in acute phase proteins were assessed in plasma by measuring the C-reactive protein (CRP) concentrations using horseradish peroxidase-labeled anti-canine CRP in a solid-phase sandwich immunoassay (Tri Delta Diagnostics, Morris Plains, N.J.).

[5] = tested on: 8-Hydroxy-2′-deoxyguanosine (8-OHdG); test: Oxidative damage to DNA in dogs (plasma 8-OHdG ELISA); type: in vivo, dog
Procedure: Oxidative damage to DNA. 8-Hydroxy-2′-deoxyguanosine (8-OHdG) was measured in plasma ELISA (BIOXYTECHTM™ 8-OHhdG-EIA Kit, OxisResearch, Portland, Oreg.; sensitivity=0.5 micrograms/L).

[6] = tested on: Cutaneous delayed-type hypersensitivity (DTH); test: Delayed-type hypersensitivity (skin induration) in cats; type: in vivo, cat
[7] = Hematology in cats; design: species or system cat; settings: in vivo
Procedure: Hematology. Hematology parameters (white blood cell, RBC and platelet counts, lymphocyte, monocyte and granulocyte differential counts, hematocrit, hemoglobin, and mean corpuscular volume, hemoglobin and hemoglobin concentration, and platelet volume) were measured using a hematology analyzer (Vet ABC-Hematology Analyzer, Heska, Fort Collins, Colo.).

[8] = tested on: peripheral blood mononuclear cell (PBMC); test: Lymphoproliferation in cats (whole blood); type: in vivo, cat
Procedure: Lymphoproliferation. Mitogen-induced peripheral blood mononuclear cell (PBMC) proliferation was assessed by incubating whole blood in the presence of PHA (0.25 and 1.25 mg/L final concentration), con A (0.5 and 2.5 mg/L), and pokeweed mitogen (PWM; 0.025 and 0.125 mg/L) as previously described (Chew et al., 2000). Whole blood was used in order to simulate in vivo conditions. Results are reported as stimulation index (cpm of mitogen-stimulated÷cpm of unstimulated cultures).

[9] = tested on: Crandell feline kidney fibroblast cells (CrFK); test: Natural killer cell cytotoxic activity in cats; type: in vivo, cat
Procedure: Natural killer cell cytotoxic activity. Cultures of Crandell feline kidney fibroblast cells (CrFK, ATCC CRL-9761; Crandell et al., 1973) were grown in Dulbecco's Modified Eagles Medium (Sigma, St. Louis, Mo.) with 10% fetal bovine serum, 100 U/mL penicillin, and […] streptomycin sulfate. At 70-90% confluence, cells were trypsinized, washed and adjusted to 2×10^5 cells/mL. One hundred microliters of cell suspension was pipeted into each well of 96-well flat bottom plates (Nunclon, Denmark) and incubated at 37° C. for 8 hours. Ficoll-separated PBMC were adjusted to 1×10^6/mL or 2×10^6/mL and 100 μL of the cell suspensions were added to the CrFK target cells to provide effector:target cell ratios of 5:1 and 10:1. After incubating for 8 hours, 20 μL MTT (5 g/L) were added and the mixture incubated for 4 hours. The supernatant was removed and the formazan resuspended in 100 μL isopropanol. Optical density was measured at 550 nm and the percent of specific cytotoxicity calculated as follows:
% Specific cytotoxicity=1−(ODeffector+target−ODeffector)/ODtarget×100.

[10] = Absorption of astaxanthin and distribution to blood leukocytes and HDL in dogs; type: in vivo, dog
[11] = Absorption of astaxanthin and distribution to blood leukocytes and HDL in cats; type: in vivo, cat
[12] = tested on: total T, Th, Tc, MHC II and CD21 lymphocyte populations; test: Leukocyte subsets in cats by flow cytometry; type: in vivo, cat; settings: by weeks 8 and 12, generally dose-dependent
[13] = tested on: mouse splenocytes; settings: cultured cell assay (Jyonouchi et al.); cited from earlier work

CC1=C(/C=C/C(C)=C/C=C/C(C)=C/C=C/C=C(C)/C=C/C=C(C)/C=C/C2=C(C)C(=O)C(O)CC2(C)C)C(C)(C)CC(O)C1=O (stereo not drawn) [astaxanthin, 3,3′-dihydroxy-beta, beta-carotene-4,4′-dione]
influence of diet on body weight ([1]; dogs fed 0, 10, 20 or 40 mg daily, throughout 16 wk study): did not significantly influence body weight
body weight averaged ([1]; wk 16, average over all diets): 8.57 ± 0.11 kg
blood hematology [2]: generally showed no dietary effects
population of B cells ([3]; 20 mg, post-vaccination week 16): showed the highest response; also recorded: highest B cell subpopulation
CD4 population ([3]; any time period): did not effect changes
CD8 population ([3]; any time period): did not effect changes
MHC class II population ([3]; any time period): did not effect changes
CD3 population ([3]; dogs fed 30 mg): transient decrease in the CD3 population
population of B cells ([3]; week 6 and 12, dose-dependent): generally increased the population of B cells
plasma C-reactive protein concentrations ([4]; post-vaccination, week 16): decreased plasma C-reactive protein concentrations; also recorded: lower concentrations of circulating CRP
plasma CRP concentrations between diets ([4]; through week 12): similar
plasma CRP concentration averaged ([4]; through week 12, average over diets): 4.48 mg/L
plasma 8-OHdG concentrations ([5]; dogs fed 40 mg versus lower doses): no further decrease
plasma 8-OHdG production ([5]; supplemented dogs, as with C-reactive protein (post-vaccination)): inhibited the production of 8-OHdG
plasma 8-OHdG concentration ([5]; wk 12): no dietary influence
DTH response with dietary astaxanthin ([6]; after vaccination, wk 12): somewhat diminished
skin induration response to vaccine ([6]; wk 8, 72 h post-injection, cats fed 10 mg): significant enhancement
DTH response to con A ([6]; wk 8, cats fed 5 or 10 mg): higher DTH response to con A at 24 and 48 h
time of maximal skin induration response to vaccine ([6]; wk 8, post-injection): 72 h
DTH response to nonspecific (con A) antigenic challenge ([6]; wk 8, pre-vaccination): stimulated DTH response; also recorded: increased DTH response
DTH response to specific (vaccine) antigenic challenge ([6]; wk 8, pre-vaccination): stimulated DTH response; also recorded: increased DTH response
DTH response to con A ([6]; wk 12): significant only with 1 mg astaxanthin
DTH response to vaccine ([6]; wk 12, cats fed 10 mg): still showed enhanced DTH response to vaccine, but at 24 h after injection
blood hematology parameters [7]: generally did not influence
hematology values relative to normal range [7]: within the normal range
proliferative response to ConA ([8]; 1 mg, post-vaccination week 12): higher proliferative response
proliferative response to PHA ([8]; 1 mg, post-vaccination week 12): higher proliferative response
proliferative response to PWM ([8]; 1 mg, post-vaccination week 12): higher proliferative response
mitogen-induced PBMC proliferation ([8]; by week 8): did not influence
NK cell cytotoxic activity ([9]; week 8): no dietary treatment differences
NK cell cytotoxic activity ([9]; week 12, effector:target ratio 5:1, 5 and 10 mg): stimulated NK cell cytotoxic activity
NK cell cytotoxic activity ([9]; week 12, effector:target ratio 10:1, 1, 5 and 10 mg): stimulated NK cell cytotoxic activity
lipoprotein association of circulating astaxanthin ([10]; dogs): associated with high-density lipoprotein (HDL)
absorption of dietary astaxanthin ([10]; domestic dogs): able to absorb dietary astaxanthin
uptake by blood and blood leukocytes (sub-cellular organelles) ([10]; domestic dogs fed astaxanthin): significant uptake by the blood and by all sub-cellular organelles of blood leukocytes; also recorded: significantly absorbed by blood leukocytes
lipoprotein association of circulating astaxanthin ([11]; cats): associated with high-density lipoprotein (HDL)
absorption of dietary astaxanthin ([11]; domestic cats): able to absorb dietary astaxanthin
uptake by blood and blood leukocytes (sub-cellular organelles) ([11]; domestic cats fed astaxanthin): significant uptake by the blood and by all sub-cellular organelles of blood leukocytes; also recorded: significantly absorbed by blood leukocytes
population of CD5+ total T cells [12]: increased the populations; also recorded: increase in the populations of total T and Th lymphocytes
in vitro antibody response of mouse splenocytes to T-dependent antigens [13]: increase in vitro antibody response
